Assay results taken from US10781224B2, “Bis(oxymethyl)phosphinic acid and biogenic metal salts thereof as regulators of plant growth and development” (priority 2016, dated 2020).

System: corn (Krasnodar 385 MV variety)
Test: Corn seed treatment with BHMPA salts: germinating power
Assay type: in vivo
Experimental: Experimental versions—soaking seeds in BHMPA solutions and solutions of BHMPA Ca, Mg, Na, Co, Mn, Cu, and Zn salts at 1·10^−6-1·10^−12% concentrations (doses). The studies were conducted in laboratory in Petri dishes; seed bed—two layers of filter paper. 50 seeds soaked in water (control) and in the solutions of the tested compounds (experimental) were placed into each dish. Wheat, corn, and rice seeds were exposed for one hour.
Seed germination energy and rate were calculated in percent as an arithmetic mean of the four experimental results (germination energy on the 4th day, wheat germination on the 8th day, rice and corn germination—on the 7th day). Germination was determined based on the germinating power indicators (length of the roots and sprouts and their wet and dry mass per 100 shoots).
The effect of pre-sowing seed treatment with the claimed BHMPA salts of biogenic metals was studied on winter wheat (Vershin variety), corn (Krasnodar 385 MV variety), and rice (Diamant variety).
The above data describe the seed viability only at the initial stage of germination, while the germination ability at the later stage of germination is defined by the initial germinating power. The method for the determination of the germinating power comprises measuring the height of the sprouts and primary roots, as well as the biomass and the dry mass thereof per 100 seedlings. [M. A. Kartuzova. Initial Germinating Power as Method of Biological Assessment of Seed Quality. Selection and Seed Farming, #2, 1953].

[1] = corn seeds, solution concentration 1 · 10^−6%, cobalt salt of BHMPA
[2] = corn seeds, solution concentration 1 · 10^−7%, cobalt salt of BHMPA
[3] = corn seeds, solution concentration 1 · 10^−8%, cobalt salt of BHMPA
[4] = corn seeds, solution concentration 1 · 10^−9%, cobalt salt of BHMPA
[5] = corn seeds, solution concentration 1 · 10^−10%, cobalt salt of BHMPA
[6] = corn seeds, solution concentration 1 · 10^−11%, cobalt salt of BHMPA
[7] = corn seeds, solution concentration 1 · 10^−12%, cobalt salt of BHMPA

## O.O.O=P([O-])(CO)CO.O=P([O-])(CO)CO.[Co+2] [Co-salt, Cobalt BHMPA Salt]
corn
  optimum concentration for treating corn seeds before sowing: 1·10^−7%
[1]
  Length, root: 5.0 cm
  Length, root, + % to control: 6%
  Length, sprout: 3.2 cm
  Length, sprout, + % to control: 7%
  Mass, dry, root: 1.31 g/100 plantlings
  Mass, dry, root, + % to control: 5%
  Mass, dry, sprout: 1.09 g/100 plantlings
  Mass, dry, sprout, + % to control: 12%
  Mass, wet, root: 9.76 g/100 plantlings
  Mass, wet, root, + % to control: 9%
  Mass, wet, sprout: 7.75 g/100 plantlings
  Mass, wet, sprout, + % to control: 24.5%
[2]
  Length, root: 6.2 cm
  Length, root, + % to control: 32%
  Length, sprout: 3.8 cm
  Length, sprout, + % to control: 27%
  Mass, dry, root: 1.44 g/100 plantlings
  Mass, dry, sprout: 1.21 g/100 plantlings
  Mass, dry, sprout, + % to control: 25%
  Mass, wet, root: 10.77 g/100 plantlings
  Mass, wet, root, + % to control: 20%
  Mass, wet, sprout: 9.96 g/100 plantlings
  Mass, wet, sprout, + % to control: 60%
[3]
  Length, root: 5.6 cm
  Length, root, + % to control: 19%
  Length, sprout: 3.6 cm
  Length, sprout, + % to control: 20%
  Mass, dry, root: 1.37 g/100 plantlings
  Mass, dry, root, + % to control: 10%
  Mass, dry, sprout: 1.14 g/100 plantlings
  Mass, dry, sprout, + % to control: 17.5%
  Mass, wet, root: 10.17 g/100 plantlings
  Mass, wet, root, + % to control: 13%
  Mass, wet, sprout: 9.00 g/100 plantlings
  Mass, wet, sprout, + % to control: 45%
[4]
  Length, root: 5.0 cm
  Length, root, + % to control: 6%
  Length, sprout: 3.5 cm
  Length, sprout, + % to control: 17%
  Mass, dry, root: 1.31 g/100 plantlings
  Mass, dry, root, + % to control: 5%
  Mass, dry, sprout: 1.07 g/100 plantlings
  Mass, dry, sprout, + % to control: 10%
  Mass, wet, root: 10.00 g/100 plantlings
  Mass, wet, root, + % to control: 11%
  Mass, wet, sprout: 7.58 g/100 plantlings
  Mass, wet, sprout, + % to control: 22%
[5]
  Length, root: 4.9 cm
  Length, root, + % to control: 4%
  Length, sprout: 3.3 cm
  Length, sprout, + % to control: 10%
  Mass, dry, root: 1.29 g/100 plantlings
  Mass, dry, root, + % to control: 3%
  Mass, dry, sprout: 1.03 g/100 plantlings
  Mass, dry, sprout, + % to control: 6%
  Mass, wet, root: 9.80 g/100 plantlings
  Mass, wet, root, + % to control: 9%
  Mass, wet, sprout: 6.75 g/100 plantlings
  Mass, wet, sprout, + % to control: 8.5%
[6]
  Length, root: 4.5 cm
  Length, root, + % to control: −4%
  Length, sprout: 3.0 cm
  Length, sprout, + % to control: 0%
  Mass, dry, root: 1.27 g/100 plantlings
  Mass, dry, root, + % to control: 2%
  Mass, dry, sprout: 0.98 g/100 plantlings
  Mass, dry, sprout, + % to control: 1%
  Mass, wet, root: 9.62 g/100 plantlings
  Mass, wet, root, + % to control: 7%
  Mass, wet, sprout: 6.41 g/100 plantlings
  Mass, wet, sprout, + % to control: 3%
[7]
  Length, root: 4.2 cm
  Length, root, + % to control: −11%
  Length, sprout: 2.9 cm
  Length, sprout, + % to control: −3%
  Mass, dry, root: 1.22 g/100 plantlings
  Mass, dry, root, + % to control: −2%
  Mass, dry, sprout: 0.98 g/100 plantlings
  Mass, dry, sprout, + % to control: 1%
  Mass, wet, root: 9.28 g/100 plantlings
  Mass, wet, root, + % to control: 3%
  Mass, wet, sprout: 6.23 g/100 plantlings
  Mass, wet, sprout, + % to control: 0%
corn, 1·10^−7% solution
  Length, root, + % to control: 32%
  Length, sprout, + % to control: 27%
  Mass, dry, root, + % to control: 15%
  Mass, dry, sprout, + % to control: 25%
  Mass, wet, root, + % to control: 20%
  Mass, wet, sprout, + % to control: 60%
corn, 1·10^−11% and 1·10^−12% solutions
  germination intensity vs control: no increase in the germination intensity
